The nature of this data set: gradient 5% acetonitrile 3 min, to 50% in 2 min, to 85% in 15 min, held 3 min, 100 µL/min. The following applies: column: Zorbax Extend-C18 2.1 x 50 mm; eluents: water / acetonitrile, 0.1% formic acid. In short, it runs like this:
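Mixtures of ~100 pure standards were chromatographed on a Zorbax Extend-C18 column (2.1 × 50 mm, 1.8 μm) at 100 μL/min using water and acetonitrile, each with 0.1% formic acid. Detection used a quadrupole time-of-flight mass spectrometer in positive and negative ionization mode, and data collection spanned 3 months. Retention time was obtained from adduct peaks picked computationally and each checked manually.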
`O=C(Nc1ccccc1F)C1CCN(C(=O)c2ncn3c2COC(c2ccc(F)cc2)C3)CC1` (stereo unspecified) came in with an RP-LC retention time of 738 s.

Take `Cc1ccc2c(c1)N(S(C)(=O)=O)CCC(C(=O)NCc1ccccc1Cl)O2` (stereo unspecified): the RP-LC retention time stood at 945 s.

The compound `O=C(N[C@H]1C[C@@H]2C[C@H]1N(C(=O)c1cccc(C(F)(F)F)c1)C2)c1cccs1` showed an RP-LC retention time of 839 s.

The compound `CCN1C(=O)NC(c2ccc(C)cc2C)C2=C1CN(CCC(=O)N1CCOCC1)C2=O` (stereo unspecified) showed an RP-LC retention time of 614 s.

`CCC(C)NC(=O)c1cccn1Cc1noc(-c2ccc(Cl)cc2)n1` (stereo unspecified) displayed an RP-LC retention time of 1080 s.

Consider `Cn1nccc1-c1cccc(-c2noc(-c3ccccc3Br)n2)c1`, for which the RP-LC retention time came out at 1180 s.

For the compound `CCCn1cc(C2=CCN(S(=O)(=O)Cc3cccc(Cl)c3)CC2)c2cccnc21`, the RP-LC retention time is 1110 s.

In the case of `CCOc1ccc(-c2n[nH]c3c2C(c2ccc(O)c(OC)c2)NC3=O)cc1` (stereo unspecified), the RP-LC retention time was determined as 637 s.

`COc1cc2c(cc1CNC(=O)C1CC1)OCCCO2` gave an RP-LC retention time of 709 s.

For `O=C(CCC1CCCC1)NCCC1CCN(C(=O)Nc2ccccc2)CC1`, the RP-LC retention time worked out at 876 s.

In turn, `CCCN1CCN(c2cc(C(=O)O)c3cc(NC(=O)c4ccccc4F)ccc3n2)CC1` registered an RP-LC retention time of 601 s.

Regarding `COC(=O)c1ccc2c(=O)n(-c3cccc(C)c3)c(N3CCCCC3)nc2c1`, the RP-LC retention time came out at 1240 s.

Compound `Cc1noc(C)c1C(=O)N1CCCC1c1ccccc1Cl` (stereo unspecified) gave an RP-LC retention time of 838 s.

`COc1ccc(CCC(=O)N2CCN(c3nnc4ccc(C(F)(F)F)cn34)CC2)cc1` yielded an RP-LC retention time of 709 s.

`Cc1ccccc1OCc1nc(-c2ccc3c(c2)oc(=O)n3C(C)C)no1` showed an RP-LC retention time of 1160 s.

For the compound `COCCN1C(=O)c2ccccc2C(C(=O)NCCc2ccc(F)cc2)C12CCCC2` (stereo unspecified), the RP-LC retention time amounted to 874 s.

In the case of `O=C(Cn1ccc2ccn(CC3CC3)c2c1=O)N1CCOCC1`, the RP-LC retention time turned out to be 682 s.

In turn, `COc1ccccc1-c1nc2nccc(-c3ccc(Br)s3)n2n1` showed an RP-LC retention time of 1020 s.

`CCOC(=O)c1cccc(NC(=O)N2CCC3(CC2)NC(=O)c2ccccc2O3)c1`: the RP-LC retention time stood at 804 s.

As to `O=C(NCc1n[nH]c(=O)c2ccccc12)C(=O)N1CCN(c2ccccc2)CC1`, the RP-LC retention time came out at 658 s.

`Cc1nn(-c2ccccc2)c2c1N(CC(=O)NC1CCCC1)C(=O)CS2` yielded an RP-LC retention time of 780 s.

Compound `O=C(CN1CCN(S(=O)(=O)c2ccccc2)CC1)Nc1ccc(Br)cc1` came in with an RP-LC retention time of 722 s.

Take `O=C(CCc1c(-c2ccc(F)cc2)nc2ccccn12)N1CCN(c2ccccc2F)CC1`: the RP-LC retention time was 694 s.

`O=C(c1cccc(Cl)c1)N1CCC(n2c(-c3ccco3)nc3cccnc32)C1` (stereo unspecified) displayed an RP-LC retention time of 776 s.

Compound `COC(=O)c1ccc(NC(=O)N2CC(C)Oc3ccccc32)cc1` (stereo unspecified) had an RP-LC retention time of 879 s.

`CCC(=O)N1CCCc2ccc(NC(=O)c3ccco3)cc21` showed an RP-LC retention time of 729 s.

The compound `O=C(COc1ccccc1F)Nc1cc(C(F)(F)F)ccc1Cl` yielded an RP-LC retention time of 1150 s.

Compound `Clc1ccc(-c2nc(NC3CCCCC3)c3ccccc3n2)cc1` had an RP-LC retention time of 924 s.

Consider `CCOC(=O)c1cnc2nc(C)ccc2c1Nc1ccccc1F`, for which the RP-LC retention time came to 684 s.

The compound `c1csc(CN2CCC(Oc3ccccc3-c3nc(-c4cnccn4)no3)C2)c1` (stereo unspecified) came in with an RP-LC retention time of 662 s.

With `CC(C)NC(=O)c1cc(N(C)C)nc2c(Cl)cccc12`, the RP-LC retention time turned out to be 816 s.

As to `Cc1cc(C(=O)Nc2ccc(S(C)(=O)=O)cc2)on1`, the RP-LC retention time worked out at 625 s.

Compound `Cc1ccccc1CC(=O)N1CCC(n2c(=O)n(C)c3cncnc32)C1` (stereo unspecified) gave an RP-LC retention time of 652 s.

Turning to `O=C(Nc1ccc(F)cc1)c1ccc(Cl)s1`, the RP-LC retention time was 908 s.

As for `O=C(NCc1ccco1)c1c2c(nc3ccccc13)C(=O)N(C1CCCCC1)C2`, the RP-LC retention time came to 808 s.

In turn, `O=C(NCc1ccccc1)N1CCC(OCc2nc(C3CC3)no2)CC1` displayed an RP-LC retention time of 776 s.

As for `CCN(C(=O)Cc1csc2nc(-c3ccccc3)cn12)c1ccccc1`, the RP-LC retention time was determined as 852 s.

`CCn1c(C)c(-c2nc(C3CC3)no2)c(S(=O)(=O)NCC2CCCO2)c1C` (stereo unspecified) showed an RP-LC retention time of 768 s.

Compound `O=C(c1cnccn1)N1CC(c2nc(-c3cccs3)no2)C1` gave an RP-LC retention time of 693 s.

Take `Cc1ccc(-c2nnc(Cc3nc(-c4ccccc4Cl)no3)o2)cc1F`: the RP-LC retention time worked out at 1110 s.

Consider `Cc1ccc(N2CCC(NC(=O)Nc3ccccc3C)C2=O)cc1C` (stereo unspecified), for which the RP-LC retention time is 875 s.

As for `CC(C)Cn1cc(S(=O)(=O)N2CCSCC2)c2cccnc21`, the RP-LC retention time came out at 969 s.

`COc1ccc(C(=O)NCc2cnoc2-c2ccc(F)cc2)cc1OC` gave an RP-LC retention time of 820 s.

`COc1ccccc1CN1CC(=O)N(c2cccc(C)c2)[C@@H]2CS(=O)(=O)C[C@@H]21`: the RP-LC retention time turned out to be 819 s.

The compound `CC(C)c1nc2ccc(C(=O)NCCc3c[nH]c4ccc(Cl)cc34)cc2o1` returned an RP-LC retention time of 941 s.

As for `CCCn1nnc2cc(S(=O)(=O)N3CCCC(C(=O)N4CCCCCC4)C3)ccc21` (stereo unspecified), the RP-LC retention time is 890 s.

`CCc1nn2c(CNS(=O)(=O)c3ccc(F)c(F)c3)c(-c3ccccc3)nc2s1`: the RP-LC retention time is 982 s.

`O=C(c1ccncc1)N1CCC2(CC1)N=C(c1ccc(Cl)cc1)NO2` showed an RP-LC retention time of 625 s.

`COc1ccc(NC(=O)C2CCN(S(C)(=O)=O)c3cc(Cl)ccc3O2)cc1` (stereo unspecified) gave an RP-LC retention time of 918 s.

Compound `CCc1ccc(CNC(=O)Cc2nnc(-c3ccc4ncccc4c3)o2)cc1` displayed an RP-LC retention time of 758 s.

`O=C(Cn1cnc2nc(N3CCC(C(=O)NC4CC4)CC3)sc2c1=O)NCC1CCCO1` (stereo unspecified) came in with an RP-LC retention time of 589 s.

As for `COc1ccc(OC)c(NC(=O)N2CCC(CC(=O)NCc3ccc(F)cc3)CC2)c1`, the RP-LC retention time worked out at 803 s.

On to `O=C(C1=CN(c2cccc(Br)c2)c2ccccc2S1(=O)=O)N1CCCC1`, for which the RP-LC retention time was 819 s.

As to `O=C(CC1CCCCC1)N1CCCC(COc2ccc(C(=O)N3CCOCC3)cc2)C1` (stereo unspecified), the RP-LC retention time was found to be 856 s.

The compound `Cc1ccc(Nc2nc(-c3ccncc3)nc3ccccc23)cc1` yielded an RP-LC retention time of 797 s.

Turning to `CC(CCc1ccccc1)NC(=O)Cn1cccc1-c1nc(-c2ccc3c(c2)OCO3)no1` (stereo unspecified), the RP-LC retention time came out at 1090 s.

Regarding `Cc1ccc(N(C)C(=O)n2cnc3ccccc32)cc1`, the RP-LC retention time was 767 s.

For the compound `Cc1ccc(Nc2c(-c3cc(Br)ccc3O)nc3ncccn23)cc1`, the RP-LC retention time worked out at 1050 s.

The compound `COCCNc1c(-c2cccc(F)c2)nc2sc(C(=O)NC3CCCC3)c(C)n12` yielded an RP-LC retention time of 917 s.

Consider `CCCN1C(=O)c2cc(S(=O)(=O)Nc3ccc(Cl)cc3)ccc2Oc2cccnc21`, for which the RP-LC retention time was found to be 1110 s.

Consider `CCc1ccc(NC(=O)Nc2ccc(NC(=O)N3CCCC(C(=O)NC)C3)cc2)cc1` (stereo unspecified), for which the RP-LC retention time amounted to 730 s.

Compound `COc1ccc(-c2noc(-c3nn(-c4ccc(C)cc4)ccc3=O)n2)cc1OC` gave an RP-LC retention time of 827 s.

As for `Cc1cc(OC(=O)c2cc3ccccc3o2)c([N+](=O)[O-])c(=O)[nH]1`, the RP-LC retention time was 1160 s.

In turn, `CCOc1ccc(S(=O)(=O)N2CCCC(C(=O)NCc3ccncc3)C2)cc1C` (stereo unspecified) gave an RP-LC retention time of 659 s.

Regarding `CCN1c2cc(C(=O)Nc3ccc4c(c3)OCCO4)ccc2C(=O)N2CCCCC21` (stereo unspecified), the RP-LC retention time amounted to 821 s.

`O=C(Cn1nc2c3ccccc3ncn2c1=O)Nc1cccc(C(F)(F)F)c1` displayed an RP-LC retention time of 733 s.

For `CN(C)c1cccc(-c2nn3c(CSc4ccccc4)nnc3s2)c1`, the RP-LC retention time amounted to 1070 s.

`CCn1cc2c3c(cccc31)CN(C(=O)Nc1ccc(SC)cc1)CC2` gave an RP-LC retention time of 984 s.

The compound `O=C(Nc1cccc(OC(F)(F)F)c1)C1CCCN(c2nnc3ccccn23)C1` (stereo unspecified) had an RP-LC retention time of 784 s.

Compound `O=C(c1ccc(F)c(Cl)c1)N1CCN(c2nc(CN3CCOCC3)cs2)CC1` showed an RP-LC retention time of 638 s.

In turn, `C=CCN(Cc1nc(-c2ccc(C)cc2)no1)C(=O)Nc1ccccc1OC` displayed an RP-LC retention time of 1130 s.

In the case of `O=C(NCc1ccc(F)cc1)c1ccc2c(c1)nc1n2CCN(c2ccccc2)C1=O`, the RP-LC retention time came out at 760 s.

`COc1ccc(N2CC(c3nc(-c4ccccc4F)no3)CC2=O)cc1` (stereo unspecified) gave an RP-LC retention time of 865 s.

`Cc1cc2c(cc1S(=O)(=O)N1CCC(C(=O)NCCC3=CCCCC3)CC1)OCC(=O)N2` registered an RP-LC retention time of 820 s.

For the compound `COCCNCc1c(C(=O)O)c(C)n(Cc2cccc(Cl)c2)c1C`, the RP-LC retention time stood at 679 s.

With `Cc1ccc(Cl)c2c1NC(=O)C2(O)CC(=O)c1ccc(F)cc1` (stereo unspecified), the RP-LC retention time came to 786 s.

Consider `CCn1cc(CCN2CCN(C(=O)C3CCCC3)CC2)c2cccnc21`, for which the RP-LC retention time is 597 s.

The compound `CCCNC(=O)CSc1ncccc1C(=O)O` yielded an RP-LC retention time of 599 s.

In turn, `CN(CCc1noc(-c2ccc(F)cc2)n1)C(=O)Nc1ccc(F)cc1F` had an RP-LC retention time of 874 s.

For `CC1(C(=O)NCc2ccccc2)CCCN(S(=O)(=O)c2ccccc2Cl)C1` (stereo unspecified), the RP-LC retention time was determined as 946 s.

For `COc1ccc(-c2nnc(SCc3cccc(C(F)(F)F)c3)o2)cc1OC`, the RP-LC retention time amounted to 992 s.

(Values after the METLIN SMRT retention time set (Domingo-Almenara et al. 2019).)
